Results taken from US8563542B2 (Cyclacel Limited, priority 2007, dated 2013).

Target: PLK1 (Homo sapiens, UniProt P53350)
Test: PLK1 protein kinase assay (CDC25C phosphorylation, [γ-32P]-ATP)
Assay type: biochemical
Settings: Table 2, PLK1 IC50; class symbols; read-out: PLK1 IC50

Sequence of PLK1 (P53350 whole entry): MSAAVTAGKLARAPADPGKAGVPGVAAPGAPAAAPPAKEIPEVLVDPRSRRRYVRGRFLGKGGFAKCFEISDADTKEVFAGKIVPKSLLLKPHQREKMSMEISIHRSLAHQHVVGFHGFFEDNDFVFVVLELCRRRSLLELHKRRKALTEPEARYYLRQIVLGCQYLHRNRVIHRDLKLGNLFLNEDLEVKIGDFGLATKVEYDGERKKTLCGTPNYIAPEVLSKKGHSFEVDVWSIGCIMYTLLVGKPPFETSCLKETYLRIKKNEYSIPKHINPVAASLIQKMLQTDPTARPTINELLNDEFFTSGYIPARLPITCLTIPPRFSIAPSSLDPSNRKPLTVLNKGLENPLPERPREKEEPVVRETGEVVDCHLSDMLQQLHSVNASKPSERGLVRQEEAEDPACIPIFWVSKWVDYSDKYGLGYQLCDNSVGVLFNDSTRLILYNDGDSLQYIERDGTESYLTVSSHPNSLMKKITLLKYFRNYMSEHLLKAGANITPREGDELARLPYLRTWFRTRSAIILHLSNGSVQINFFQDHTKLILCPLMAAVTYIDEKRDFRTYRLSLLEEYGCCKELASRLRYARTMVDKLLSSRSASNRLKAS

SMILES | IC50
CNC(=O)c1ccc(OC)c(Nc2ncc3c(n2)N(C2CCCC2)CCC(=O)N3C)c1 [compound 144, 3-(9-Cyclopentyl-5-methyl-6-oxo-6,7,8,9-tetrahydro-5H-pyrimido[4,5-b][1,4]diazepin-2-ylamino)-4-methoxy-N-methyl-benzamide] | < 1000 nM
COc1ccc(C(=O)NCCO)cc1Nc1ncc2c(n1)N(C1CCCC1)CCC(=O)N2C [compound 145, 3-(9-Cyclopentyl-5-methyl-6-oxo-6,7,8,9-tetrahydro-5H-pyrimido[4,5-b][1,4]diazepin-2-ylamino)-N-(2-hydroxy-ethyl)-4-methoxy-benzamide] | < 1000 nM
COc1cc(C(=O)NCCCN(C)C)ccc1Nc1ncc2c(n1)N(C1CCCC1)CCC(=O)N2C [compound 149, 4-(9-Cyclopentyl-5-methyl-6-oxo-6,7,8,9-tetrahydro-5H-pyrimido[4,5-b][1,4]diazepin-2-ylamino)-N-(3-dimethylamino-propyl)-3-methoxy-benzamide] | < 1000 nM
COc1cc(C(=O)N[C@@H](CO)C(C)C)ccc1Nc1ncc2c(n1)N(C1CCCC1)CCC(=O)N2C [compound 152, 4-(9-Cyclopentyl-5-methyl-6-oxo-6,7,8,9-tetrahydro-5H-pyrimido[4,5-b][1,4]diazepin-2-ylamino)-N-((R)-1-hydroxymethyl-2-methyl-propyl)-3-methoxy-benzamide] | < 1000 nM
COc1cc(C(=O)NCC(C)O)ccc1Nc1ncc2c(n1)N(C1CCCC1)CCC(=O)N2C (centres unmarked) [compound 154, 4-(9-Cyclopentyl-5-methyl-6-oxo-6,7,8,9-tetrahydro-5H-pyrimido[4,5-b][1,4]diazepin-2-ylamino)-N-(2-hydroxy-propyl)-3-methoxy-benzamide] | < 1000 nM
COc1cc(C(=O)NC(C)(C)CN2CCCC2)ccc1Nc1ncc2c(n1)N(C1CCCC1)CCC(=O)N2C [compound 155, 4-(9-Cyclopentyl-5-methyl-6-oxo-6,7,8,9-tetrahydro-5H-pyrimido[4,5-b][1,4]diazepin-2-ylamino)-N-(1,1-dimethyl-2-pyrrolidin-1-yl-ethyl)-3-methoxy-benzamide] | < 1000 nM
COc1cc(C(=O)NC2CCN(Cc3ccccc3)CC2)ccc1Nc1ncc2c(n1)N(C1CCCC1)CCC(=O)N2C [compound 157, N-(1-Benzyl-piperidin-4-yl)-4-(9-cyclopentyl-5-methyl-6-oxo-6,7,8,9-tetrahydro-5H-pyrimido[4,5-b][1,4]diazepin-2-ylamino)-3-methoxy-benzamide] | < 100 nM
COc1cc(C(=O)NN2CCN(C)CC2)ccc1Nc1ncc2c(n1)N(C1CCCC1)CCC(=O)N2C [compound 160, 4-(9-Cyclopentyl-5-methyl-6-oxo-6,7,8,9-tetrahydro-5H-pyrimido[4,5-b][1,4]diazepin-2-ylamino)-3-methoxy-N-(4-methyl-piperazin-1-yl)-benzamide] | < 100 nM
COc1cc(C(=O)NC2CN3CCC2CC3)ccc1Nc1ncc2c(n1)N(C1CCCC1)CCC(=O)N2C (centres unmarked) [compound 161, N-(1-Aza-bicyclo[2.2.2]oct-3-yl)-4-(9-cyclopentyl-5-methyl-6-oxo-6,7,8,9-tetrahydro-5H-pyrimido[4,5-b][1,4]diazepin-2-ylamino)-3-methoxy-benzamide] | < 100 nM
COc1cc(C(=O)NCC(C)(C)CN(C)C)ccc1Nc1ncc2c(n1)N(C1CCCC1)CCC(=O)N2C [compound 165, 4-(9-Cyclopentyl-5-methyl-6-oxo-6,7,8,9-tetrahydro-5H-pyrimido[4,5-b][1,4]diazepin-2-ylamino)-N-(3-dimethylamino-2,2-dimethyl-propyl)-3-methoxy-benzamide] | < 100 nM
COc1cc(C(=O)NCCO)ccc1Nc1ncc2c(n1)N(C1CCCC1)CCC(=O)N2C [compound 166, 4-(9-Cyclopentyl-5-methyl-6-oxo-6,7,8,9-tetrahydro-5H-pyrimido[4,5-b][1,4]diazepin-2-ylamino)-N-(2-hydroxy-ethyl)-3-methoxy-benzamide] | < 1000 nM
COc1cc(C(=O)N(CCO)CCO)ccc1Nc1ncc2c(n1)N(C1CCCC1)CCC(=O)N2C [compound 167, 4-(9-Cyclopentyl-5-methyl-6-oxo-6,7,8,9-tetrahydro-5H-pyrimido[4,5-b][1,4]diazepin-2-ylamino)-N,N-bis-(2-hydroxy-ethyl)-3-methoxy-benzamide] | < 10000 nM
CONC(=O)c1ccc(Nc2ncc3c(n2)N(C2CCCC2)CCC(=O)N3C)c(OC)c1 [compound 169, 4-(9-Cyclopentyl-5-methyl-6-oxo-6,7,8,9-tetrahydro-5H-pyrimido[4,5-b][1,4]diazepin-2-ylamino)-3,N-dimethoxy-benzamide] | < 1000 nM
CCN(CC)CCNC(=O)c1ccc(Nc2ncc3c(n2)N(C2CCCC2)CC2(CC2)C(=O)N3C)c(OC)c1 [compound 182, 4-(9-Cyclopentyl-5-methyl-6-oxo-6,7,8,9-tetrahydro-5H-spiro[pyrimido[4,5-b][1,4]diazepin-3,1′-cyclopropane]-2-ylamino)-N-(2-diethylamino-ethyl)-3-methoxy-benzamide] | < 100 nM

Results, then the molecule that gave them:

IC50 | SMILES
< 1000 nM | COc1ccc(C(=O)NC2CCN(C)CC2)cc1Nc1ncc2c(n1)N(C1CCCC1)CCC(=O)N2C [compound 143, 3-(9-Cyclopentyl-5-methyl-6-oxo-6,7,8,9-tetrahydro-5H-pyrimido[4,5-b][1,4]diazepin-2-ylamino)-4-methoxy-N-(1-methyl-piperidin-4-yl)-benzamide]
< 1000 nM | COc1cc(C(=O)N(C)CCCN(C)C)ccc1Nc1ncc2c(n1)N(C1CCCC1)CCC(=O)N2C [compound 147, 4-(9-Cyclopentyl-5-methyl-6-oxo-6,7,8,9-tetrahydro-5H-pyrimido[4,5-b][1,4]diazepin-2-ylamino)-N-(3-dimethylamino-propyl)-3-methoxy-N-methyl-benzamide]
< 100 nM | CCN(CC)CCNC(=O)c1ccc(Nc2ncc3c(n2)N(C2CCCC2)CCC(=O)N3C)c(OC)c1 [compound 148, 4-(9-Cyclopentyl-5-methyl-6-oxo-6,7,8,9-tetrahydro-5H-pyrimido[4,5-b][1,4]diazepin-2-ylamino)-N-(2-diethylamino-ethyl)-3-methoxy-benzamide]
< 1000 nM | COc1cc(C(=O)N[C@H]2c3ccccc3C[C@H]2O)ccc1Nc1ncc2c(n1)N(C1CCCC1)CCC(=O)N2C [compound 150, 4-(9-Cyclopentyl-5-methyl-6-oxo-6,7,8,9-tetrahydro-5H-pyrimido[4,5-b][1,4]diazepin-2-ylamino)-N-((1S,2R)-2-hydroxy-indan-1-yl)-3-methoxy-benzamide]
< 1000 nM | CCC(CO)NC(=O)c1ccc(Nc2ncc3c(n2)N(C2CCCC2)CCC(=O)N3C)c(OC)c1 (centres unmarked) [compound 153, 4-(9-Cyclopentyl-5-methyl-6-oxo-6,7,8,9-tetrahydro-5H-pyrimido[4,5-b][1,4]diazepin-2-ylamino)-N-(1-hydroxymethyl-propyl)-3-methoxy-benzamide]
< 100 nM | COc1cc(C(=O)NC(C)(C)CN2CCCCC2)ccc1Nc1ncc2c(n1)N(C1CCCC1)CCC(=O)N2C [compound 156, 4-(9-Cyclopentyl-5-methyl-6-oxo-6,7,8,9-tetrahydro-5H-pyrimido[4,5-b][1,4]diazepin-2-ylamino)-N-(1,1-dimethyl-2-piperidin-1-yl-ethyl)-3-methoxy-benzamide]
< 100 nM | COc1cc(C(=O)NCC2CCN(C)CC2)ccc1Nc1ncc2c(n1)N(C1CCCC1)CCC(=O)N2C [compound 158, 4-(9-Cyclopentyl-5-methyl-6-oxo-6,7,8,9-tetrahydro-5H-pyrimido[4,5-b][1,4]diazepin-2-ylamino)-3-methoxy-N-(1-methyl-piperidin-4-ylmethyl)-benzamide]
< 1000 nM | COc1cc(C(=O)NCCCO)ccc1Nc1ncc2c(n1)N(C1CCCC1)CCC(=O)N2C [compound 159, 4-(9-Cyclopentyl-5-methyl-6-oxo-6,7,8,9-tetrahydro-5H-pyrimido[4,5-b][1,4]diazepin-2-ylamino)-N-(3-hydroxy-propyl)-3-methoxy-benzamide]
< 100 nM | COc1cc(C(=O)NC2CC(C)(C)N(C)C(C)(C)C2)ccc1Nc1ncc2c(n1)N(C1CCCC1)CCC(=O)N2C [compound 162, 4-(9-Cyclopentyl-5-methyl-6-oxo-6,7,8,9-tetrahydro-5H-pyrimido[4,5-b][1,4]diazepin-2-ylamino)-3-methoxy-N-(1,2,2,6,6-pentamethyl-piperidin-4-yl)-benzamide]
< 100 nM | COc1cc(C(=O)NC2CCCN(C)C2)ccc1Nc1ncc2c(n1)N(C1CCCC1)CCC(=O)N2C (centres unmarked) [compound 163, 4-(9-Cyclopentyl-5-methyl-6-oxo-6,7,8,9-tetrahydro-5H-pyrimido[4,5-b][1,4]diazepin-2-ylamino)-3-methoxy-N-(1-methyl-piperidin-3-yl)-benzamide]
< 1000 nM | CCC(O)CNC(=O)c1ccc(Nc2ncc3c(n2)N(C2CCCC2)CCC(=O)N3C)c(OC)c1 (centres unmarked) [compound 164, 4-(9-Cyclopentyl-5-methyl-6-oxo-6,7,8,9-tetrahydro-5H-pyrimido[4,5-b][1,4]diazepin-2-ylamino)-N-(2-hydroxy-butyl)-3-methoxy-benzamide]
< 1000 nM | COc1cc(C(=O)NCCOCCO)ccc1Nc1ncc2c(n1)N(C1CCCC1)CCC(=O)N2C [compound 168, 4-(9-Cyclopentyl-5-methyl-6-oxo-6,7,8,9-tetrahydro-5H-pyrimido[4,5-b][1,4]diazepin-2-ylamino)-N-[2-(2-hydroxy-ethoxy)-ethyl]-3-methoxy-benzamide]
< 100 nM | COc1cc(C(=O)NCCCN(C)C)ccc1Nc1ncc2c(n1)N(C1CCCC1)CC1(CC1)C(=O)N2C [compound 183]
< 100 nM | COc1cc(C(=O)NCCCCO)ccc1Nc1ncc2c(n1)N(C1CCCC1)CC1(CC1)C(=O)N2C [compound 185, 4-(9-Cyclopentyl-5-methyl-6-oxo-6,7,8,9-tetrahydro-5H-spiro[pyrimido[4,5-b][1,4]diazepin-3,1′-cyclopropane]-2-ylamino)- -N-(4-hydroxy-butyl)-3-methoxy-benzamide]
< 100 nM | COc1cc(C(=O)NC2CCCN(C)C2)ccc1Nc1ncc2c(n1)N(C1CCCC1)CC1(CC1)C(=O)N2C (centres unmarked) [compound 187, 4-(9-Cyclopentyl-5-methyl-6-oxo-6,7,8,9-tetrahydro-5H-spiro[pyrimido[4,5-b][1,4]diazepin-3,1-cyclopropane]-2-ylamino)-3-methoxy-N-(1-methyl-piperidin-3-yl)-benzamide]
